This is an account of results in US20260273072A1, “NOVEL PLK1 DEGRADATION INDUCING COMPOUND” (UPPTHERA, INC., priority 2023, published 2026).

What all share (type): cell-based
For assay [1], the target named is T1, PLK1 (Homo sapiens, UniProt P53350).
T1 construct: endogenous in cells; host or cells: HeLa LgBit (Plk1-HiBit KI): HeLa stably expressing LgBit, with a CRISPR/Cas9 knock-in of HiBit at the endogenous PLK1 locus
Kind of assay: Luciferase assay for PLK1 in HeLa LgBit (Plk1-HiBit KI) cell line. As to conditions: 300 nM compound, luminescence after 9 hours. The method in brief: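 Compounds (300 nM) were added with Endurazine to thymidine-synchronised cells (2 mM, 24 h block, then release and 18 h culture), and luminescence at 470-480 nm was followed live. Cells: HeLa stably expressing LgBit, HiBit knocked into native PLK1 C-terminus. Value: luminescence ratio versus DMSO control.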
(In general: With HiBiT, luminescence reflects the tagged protein that the partner subunit can reach.)

Assay [2] concerns NCI-H526 cell line. Kind of assay: Cell viability assay for NCI-H526 cell line (EZ-Cytox). As to conditions: Homo sapiens, NCI-H526, 120 h; H526 cells, 5 days, 3000 nM to 0.46 nM. In short, it runs like this: (§1)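 IC50 values are binned (A: <30 nM, B: <50 nM, C: <100 nM, D: <200 nM, E: <400 nM) from EZ-Cytox read-outs. Cells were exposed to compound for 5 days, then shaken 3 min and absorbance taken at […].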

The subject of assay [3] is NCI-H69 cell line. Nature of the assay: Cell viability assay for NCI-H69 cell line (EZ-Cytox). As to conditions: Homo sapiens, NCI-H69, 120 h; H69 cells, 5 days, 3000 nM to 0.46 nM. In short, it runs like this:
as §1

In assay [4] the test system is MRC-5 cell line. Kind of assay: Cell viability assay for MRC-5 cell line (EZ-Cytox). The conditions noted are these: Homo sapiens, MRC5, 120 h; MRC-5 normal cell line, 5 days, 10000 nM to 1.52 nM; read-out: Activity: IC50 value, cell viability, MRC-5 cell line (Exemplary Compounds). The procedure: 4. Cell Viability Assay for MRC-5 Cell Line
(1) Culture of MRC-5 Cell Line
The MRC-5 cell line was purchased from KCLB. Passage of cultured cells was maintained within P15.
(2) Treatment of Compounds of the Present Invention
Then, it was cultured in 37° C. CO2 incubator (Thermo Fisher Scientific) for 5 days.
(3) Cytotoxicity Experiment
CO2 incubator for 4 hours.

What is called IC50 is the concentration at which inhibition is half-maximal.

T1 sequence (P53350 whole entry): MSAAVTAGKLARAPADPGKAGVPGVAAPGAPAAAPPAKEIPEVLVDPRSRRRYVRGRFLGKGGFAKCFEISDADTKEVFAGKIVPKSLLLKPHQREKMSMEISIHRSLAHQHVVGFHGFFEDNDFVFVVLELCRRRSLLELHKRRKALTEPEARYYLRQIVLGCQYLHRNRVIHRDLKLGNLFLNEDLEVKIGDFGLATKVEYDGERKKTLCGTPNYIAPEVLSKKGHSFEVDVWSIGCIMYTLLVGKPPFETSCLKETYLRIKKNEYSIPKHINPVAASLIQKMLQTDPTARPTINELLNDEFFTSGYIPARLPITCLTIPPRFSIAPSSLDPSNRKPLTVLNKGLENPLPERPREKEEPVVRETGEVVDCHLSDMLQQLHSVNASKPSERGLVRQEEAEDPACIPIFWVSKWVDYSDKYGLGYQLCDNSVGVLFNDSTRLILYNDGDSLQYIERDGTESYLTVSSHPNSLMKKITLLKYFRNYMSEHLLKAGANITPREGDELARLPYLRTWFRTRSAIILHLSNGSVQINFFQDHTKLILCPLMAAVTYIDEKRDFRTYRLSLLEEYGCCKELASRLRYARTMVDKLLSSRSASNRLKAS

On to `COc1cc(C(=O)NN2CCC(CCN3CCN(c4cc(F)c(NC5CCC(=O)NC5=O)cc4F)CC3)CC2)ccc1Nc1ncc2c(n1)N(C1CCCC1)CC(F)(F)C(=O)N2C` (stereo not drawn) [Compound 57, 4-((9-cyclopentyl-7,7-difluoro-5-methyl-6-oxo-6,7,8,9-tetrahydro-5H-pyrimido[4,5-b][1,4]diazepin-2-yl)amino)-N-(4-(2-(4-(4-((2,6-dioxopiperidin-3-yl)amino)-2,5-difluorophenyl)piperazin-1-yl)ethyl)piperidin-1-yl)-3-methoxybenzamide], for which, in assay [1], the “Activity: ratio of the luminescence value of compound treatment group to DMSO treatment group” value (“Activity: ratio” for short) is on record as “+++ (+++: <0.3)”. The IC50 is under 30 nM in assay [2], under 30 nM in assay [3] and over 10 µM in assay [4].

As to `COc1cc(C(=O)NN2CCC(CCN3CCN(c4cc(F)c(NC5CCC(=O)NC5=O)cc4F)CC3)CC2)ccc1Nc1ncc2c(n1)N(C(C)C)CC(F)(F)C(=O)N2C` (stereo not drawn) [Compound 58, 4-((7,7-difluoro-9-isopropyl-5-methyl-6-oxo-6,7,8,9-tetrahydro-5H-pyrimido[4,5-b][1,4]diazepin-2-yl)amino)-N-(4-(2-(4-(4-((2,6-dioxopiperidin-3-yl)amino)-2,5-difluorophenyl)piperazin-1-yl)ethyl)piperidin-1-yl)-3-methoxybenzamide], the “Activity: ratio” value in assay [1] is listed as “+++ (+++: <0.3)”. Besides, the IC50 in assay [2] is under 30 nM; in assay [3], under 30 nM; in assay [4] it was over 10 µM.

Turning to `COc1cc(C(=O)NN2CCC(CCN3CCN(c4cc(F)c(NC5CCC(=O)NC5=O)cc4F)CC3)CC2)c(F)cc1Nc1ncc2c(n1)N(C1CCCC1)CC(F)(F)C(=O)N2C` (stereo not drawn) [Compound 59, 4-((9-cyclopentyl-7,7-difluoro-5-methyl-6-oxo-6,7,8,9-tetrahydro-5H-pyrimido[4,5-b][1,4]diazepin-2-yl)amino)-N-(4-(2-(4-(4-((2,6-dioxopiperidin-3-yl)amino)-2,5-difluorophenyl)piperazin-1-yl)ethyl)piperidin-1-yl)-2-fluoro-5-methoxybenzamide], in assay [1], the “Activity: ratio” value is “++ (++: <0.5)”. Besides, the concentration for half-maximal inhibition (IC50) in assay [2] was under 30 nM; in assay [3] it was under 50 nM; in assay [4] it was over 10 µM.

On to `COc1cc(C(=O)NN2CCC(CCN3CCN(c4cc(F)c(NC5CCC(=O)NC5=O)cc4F)CC3)CC2)c(F)cc1Nc1ncc2c(n1)N(C(C)C)CC(F)(F)C(=O)N2C` (stereo not drawn) [Compound 60, 4-((7,7-difluoro-9-isopropyl-5-methyl-6-oxo-6,7,8,9-tetrahydro-5H-pyrimido[4,5-b][1,4]diazepin-2-yl)amino)-N-(4-(2-(4-(4-((2,6-dioxopiperidin-3-yl)amino)-2,5-difluorophenyl)piperazin-1-yl)ethyl)piperidin-1-yl)-2-fluoro-5-methoxybenzamide], for which, in assay [1], the “Activity: ratio” value is reported as “++ (++: <0.5)”. The 50% inhibitory concentration (IC50) was under 50 nM in assay [2], under 50 nM in assay [3] and over 10 µM in assay [4].

In the case of `COc1cc(C(=O)NC2CCN(CCC3CCN(c4cc(F)c(NC5CCC(=O)NC5=O)cc4F)CC3)CC2)ccc1Nc1ncc2c(n1)N(C1CCCC1)CC(F)(F)C(=O)N2C` (stereo not drawn) [Compound 63, 4-((9-cyclopentyl-7,7-difluoro-5-methyl-6-oxo-6,7,8,9-tetrahydro-5H-pyrimido[4,5-b][1,4]diazepin-2-yl)amino)-N-(1-(2-(1-(4-((2,6-dioxopiperidin-3-yl)amino)-2,5-difluorophenyl)piperidin-4-yl)ethyl)piperidin-4-yl)-3-methoxybenzamide], the “Activity: ratio” value in assay [1] is given as “+++ (+++: <0.3)”. Further, the figures for the IC50 in assay [2], in assay [3] and in assay [4] were under 30 nM, under 50 nM and over 10 µM, respectively.

In the case of `CCN1CC(F)(F)C(=O)N(C)c2cnc(Nc3ccc(C(=O)NC4CCN(CCC5CCN(c6cc(F)c(NC7CCC(=O)NC7=O)cc6F)CC5)CC4)cc3OC)nc21` (stereo not drawn) [Compound 64, N(1-(2-(1-(4-((2,6-dioxopiperidin-3-yl)amino)-2,5-difluorophenyl)piperidin-4-yl)ethyl)piperidin-4-yl)-4-((9-ethyl-7,7-difluoro-5-methyl-6-oxo-6,7,8,9-tetrahydro-5H-pyrimido[4,5-b][1,4]diazepin-2-yl)amino)-3-methoxybenzamide], the “Activity: ratio” value in assay [1] is “++ (++: <0.5)”. Moreover, the half-inhibitory concentration (IC50) was under 30 nM in assay [2], under 30 nM in assay [3] and over 10 µM in assay [4].

For `COc1cc(-c2nnc(CN3CCC(CCN4CCN(c5cc(F)c(NC6CCC(=O)NC6=O)cc5F)CC4)CC3)o2)ccc1Nc1ncc2c(n1)N(C1CCCC1)CC(F)(F)C(=O)N2C` (stereo not drawn) [Compound 65, 3-((4-(4-(2-(1-((5-(4-((9-cyclopentyl-7,7-difluoro-5-methyl-6-oxo-6,7,8,9-tetrahydro-5H-pyrimido[4,5-b][1,4]diazepin-2-yl)amino)-3-methoxyphenyl)-1,3,4-oxadiazol-2-yl)methyl)piperidin-4-yl)ethyl)piperazin-1-yl)-2,5-difluorophenyl)amino)piperidine-2,6-dione], the “Activity: ratio” value in assay [1] is listed as “++ (++: <0.5)”. Also, the values for the IC50 in assay [2], in assay [3] and in assay [4] were under 100 nM, under 200 nM and over 10 µM, respectively.

In the case of `COc1cc(-c2nnc(N3CCC(CCN4CCN(c5cc(F)c(NC6CCC(=O)NC6=O)cc5F)CC4)CC3)o2)ccc1Nc1ncc2c(n1)N(C1CCCC1)CC(F)(F)C(=O)N2C` (stereo not drawn) [Compound 66, 3-((4-(4-(2-(1-(5-(4-((9-cyclopentyl-7,7-difluoro-5-methyl-6-oxo-6,7,8,9-tetrahydro-5H-pyrimido[4,5-b][1,4]diazepin-2-yl)amino)-3-methoxyphenyl)-1,3,4-oxadiazol-2-yl)piperidin-4-yl)ethyl)piperazin-1-yl)-2,5-difluorophenyl)amino)piperidine-2,6-dione], in assay [1], the “Activity: ratio” value is “++ (++: <0.5)”. In addition, the results for the half-inhibitory concentration (IC50) in assay [2], in assay [3] and in assay [4] were under 200 nM, under 200 nM and over 10 µM, respectively.

For `COc1cc(C(=O)NC2CCN(CCN3CCN(c4cc(F)c(NC5CCC(=O)NC5=O)cc4F)CC3)CC2)ccc1Nc1ncc2c(n1)N(C1CCCC1)CC(F)(F)C(=O)N2C` (stereo not drawn) [Compound 67, 4-((9-cyclopentyl-7,7-difluoro-5-methyl-6-oxo-6,7,8,9-tetrahydro-5H-pyrimido[4,5-b][1,4]diazepin-2-yl)amino)-N-(1-(2-(4-(4-((2,6-dioxopiperidin-3-yl)amino)-2,5-difluorophenyl)piperazin-1-yl)ethyl)piperidin-4-yl)-3-methoxybenzamide], the “Activity: ratio” value in assay [1] is reported as “++ (++: <0.5)”. Further, the IC50 was under 30 nM in assay [2], under 30 nM in assay [3] and over 10 µM in assay [4].

Consider `COc1cc(C(=O)NC2CCN(CCN3CCN(c4cc(F)c(NC5CCC(=O)NC5=O)cc4F)CC3)CC2)ncc1Nc1ncc2c(n1)N(C1CCCC1)CC(F)(F)C(=O)N2C` (stereo not drawn) [Compound 68, 5-((9-cyclopentyl-7,7-difluoro-5-methyl-6-oxo-6,7,8,9-tetrahydro-5H-pyrimido[4,5-b][1,4]diazepin-2-yl)amino)-N-(1-(2-(4-(4-((2,6-dioxopiperidin-3-yl)amino)-2,5-difluorophenyl)piperazin-1-yl)ethyl)piperidin-4-yl)-4-methoxypicolinamide], for which, in assay [1], the “Activity: ratio” value was “++ (++: <0.5)”. In addition, the IC50 in assay [2] was under 50 nM; in assay [3], under 100 nM; in assay [4] it was over 10 µM.

With `COc1cc(C(=O)NC2CC3(CCN(CC4CCN(c5cc(F)c(NC6CCC(=O)NC6=O)cc5F)CC4)CC3)C2)c(F)cc1Nc1ncc2c(n1)N(C(C)C)CC(F)(F)C(=O)N2C` (stereo not drawn) [Compound 69, 4-((7,7-difluoro-9-isopropyl-5-methyl-6-oxo-6,7,8,9-tetrahydro-5H-pyrimido[4,5-b][1,4]diazepin-2-yl)amino)-N-(7-((1-(4-((2,6-dioxopiperidin-3-yl)amino)-2,5-difluorophenyl)piperidin-4-yl)methyl)-7-azaspiro[3.5]nonan-2-yl)-2-fluoro-5-methoxybenzamide], the “Activity: ratio” value in assay [1] is given as “++ (++: <0.5)”. Moreover, the figures for the 50% inhibitory concentration (IC50) in assay [2], in assay [3] and in assay [4] were under 30 nM, under 50 nM and over 10 µM, respectively.

For `COc1cc(C(=O)NN2CCC(CCN3CCN(c4ccc(NC5CCC(=O)NC5=O)c(F)c4F)CC3)CC2)ccc1Nc1ncc2c(n1)N(C1CCCC1)CC(F)(F)C(=O)N2C` (stereo not drawn) [Compound 71, 4-((9-cyclopentyl-7,7-difluoro-5-methyl-6-oxo-6,7,8,9-tetrahydro-5H-pyrimido[4,5-b][1,4]diazepin-2-yl)amino)-N-(4-(2-(4-(4-((2,6-dioxopiperidin-3-yl)amino)-2,3-difluorophenyl)piperazin-1-yl)ethyl)piperidin-1-yl)-3-methoxybenzamide], the “Activity: ratio” value in assay [1] is “+++ (+++: <0.3)”. The 50% inhibitory concentration (IC50) in assay [2] was under 30 nM; in assay [3], under 30 nM; in assay [4], over 10 µM.
